# Laboratory results: patent US20130102595A1 (Curis, Inc., priority 2011, published 2013)
# Experiments:
# PI3Kα (p110α/p85α) = target: T1, PI3Kα (p110α/p85α) (Homo sapiens, UniProt P42336); assay: PI3Kα ADP-Glo assay; type: biochemical; settings: 20 μM PIP2, 10 μM ATP, 30 minutes
# T1 construct: GST (N); made in house; host or cells: Baculovirus-infected Sf9 cells
# Procedure, shortened: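 Luminescent ADP-Glo detection, after depletion of residual ATP, quantified ADP made by PI3Kα phosphorylating 20 μM PIP2 at 10 μM ATP. The kinase step ran 30 min at room temperature in HEPES pH 7.4 with MgCl2, DTT and orthovanadate, using baculovirus/Sf9-expressed full-length p110α/p85α complex.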
# [1] = tested on: HDACs (HeLa cell nuclear extracts); assay: HDAC enzymatic activity, Biomol Color de Lys system; type: biochemical; settings: 1 hour, 25° C.
# Procedure, shortened: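 IC50 from sigmoidal fit of developer-terminated fluorescence (ex 350-380/em 440-460 nm). Reaction: 1 h at room temperature (25 °C), HeLa nuclear extract as HDAC source, artificial substrate, buffer of 50 mM Tris/Cl pH 8.0 with 137 mM NaCl, 2.7 mM KCl and 1 mM MgCl2.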
# T1 sequence (P42336 whole entry): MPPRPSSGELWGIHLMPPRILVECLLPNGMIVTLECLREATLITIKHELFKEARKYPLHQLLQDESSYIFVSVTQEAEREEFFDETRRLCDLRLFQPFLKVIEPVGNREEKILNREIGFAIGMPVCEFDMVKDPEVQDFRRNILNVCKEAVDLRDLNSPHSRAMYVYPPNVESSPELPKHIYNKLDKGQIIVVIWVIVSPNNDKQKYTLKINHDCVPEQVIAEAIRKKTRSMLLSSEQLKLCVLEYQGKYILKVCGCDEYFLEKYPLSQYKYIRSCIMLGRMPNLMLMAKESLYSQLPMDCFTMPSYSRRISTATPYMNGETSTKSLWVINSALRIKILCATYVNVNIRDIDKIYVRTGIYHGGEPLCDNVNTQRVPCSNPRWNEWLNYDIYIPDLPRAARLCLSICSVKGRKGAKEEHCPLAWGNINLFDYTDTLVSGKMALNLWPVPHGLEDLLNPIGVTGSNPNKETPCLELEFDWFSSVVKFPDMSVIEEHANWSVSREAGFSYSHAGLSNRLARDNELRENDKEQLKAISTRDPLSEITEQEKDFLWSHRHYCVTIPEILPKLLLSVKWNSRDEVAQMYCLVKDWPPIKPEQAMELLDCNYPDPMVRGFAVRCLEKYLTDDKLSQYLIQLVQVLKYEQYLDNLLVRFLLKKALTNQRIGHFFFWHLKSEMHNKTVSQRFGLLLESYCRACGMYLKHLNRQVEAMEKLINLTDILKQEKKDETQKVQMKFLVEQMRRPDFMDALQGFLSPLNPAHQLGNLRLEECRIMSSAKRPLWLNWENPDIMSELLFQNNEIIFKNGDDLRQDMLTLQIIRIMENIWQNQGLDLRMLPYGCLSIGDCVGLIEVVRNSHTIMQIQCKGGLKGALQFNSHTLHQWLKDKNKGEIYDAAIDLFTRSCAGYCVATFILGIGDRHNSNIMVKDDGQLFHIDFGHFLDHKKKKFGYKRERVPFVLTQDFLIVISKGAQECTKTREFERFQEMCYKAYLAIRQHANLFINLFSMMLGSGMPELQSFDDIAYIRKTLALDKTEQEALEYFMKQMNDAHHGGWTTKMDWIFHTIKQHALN
# T1 sequence (P27986 whole entry partner): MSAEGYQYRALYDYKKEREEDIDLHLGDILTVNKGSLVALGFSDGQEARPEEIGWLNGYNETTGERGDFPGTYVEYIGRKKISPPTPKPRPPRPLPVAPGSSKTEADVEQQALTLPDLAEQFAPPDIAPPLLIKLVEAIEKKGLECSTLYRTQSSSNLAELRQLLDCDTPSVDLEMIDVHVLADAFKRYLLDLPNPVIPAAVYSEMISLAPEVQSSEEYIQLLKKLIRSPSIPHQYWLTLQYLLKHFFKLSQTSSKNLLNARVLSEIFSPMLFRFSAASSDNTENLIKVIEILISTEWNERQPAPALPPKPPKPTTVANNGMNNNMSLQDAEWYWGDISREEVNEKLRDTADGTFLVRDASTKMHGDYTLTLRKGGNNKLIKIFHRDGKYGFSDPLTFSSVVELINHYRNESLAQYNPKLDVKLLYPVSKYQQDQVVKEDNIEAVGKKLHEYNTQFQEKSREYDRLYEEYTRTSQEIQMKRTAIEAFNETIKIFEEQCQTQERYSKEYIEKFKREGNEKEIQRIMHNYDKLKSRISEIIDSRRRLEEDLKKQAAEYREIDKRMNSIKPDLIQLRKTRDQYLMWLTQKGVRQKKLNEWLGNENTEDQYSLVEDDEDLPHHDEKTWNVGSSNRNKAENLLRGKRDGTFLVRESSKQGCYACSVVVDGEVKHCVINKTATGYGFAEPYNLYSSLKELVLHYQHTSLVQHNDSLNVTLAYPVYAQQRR
Structure (SMILES),IC50 (PI3Kα (p110α/p85α)) [nM],melting point,IC50 [1] [nM]
"COc1cccc(-c2nc(N3CCOCC3)c3sc(CN(C)c4ncc(C(=O)NO)cn4)cc3n2)c1 [Compound 130, N-hydroxy-2-(((2-(3-methoxyphenyl)-4-morpholinothieno[3,2-d]pyrimidin-6-yl)methyl)(methyl)amino)pyrimidine-5-carboxamide]",100 to 1000,179 to 181 °C,< 100
"COCc1cccc(-c2nc(N3CCOCC3)c3sc(CN(C)c4ncc(C(=O)NO)cn4)cc3n2)c1 [Compound 139, N-hydroxy-2-(((2-(3-(methoxymethyl)phenyl)-4-morpholinothieno[3,2-d]pyrimidin-6-yl)methyl)(methyl)amino)pyrimidine-5-carboxamide]",100 to 1000,178 to 181 °C,< 100
"CN(Cc1cc2nc(-c3ccccc3CO)nc(N3CCOCC3)c2s1)c1ncc(C(=O)NO)cn1 [Compound 141, N-hydroxy-2-(((2-(2-(hydroxymethyl)phenyl)-4-morpholinothieno[3,2-d]pyrimidin-6-yl)methyl)(methyl)amino)pyrimidine-5-carboxamide]",100 to 1000,173 to 176 °C,< 100
"CN(Cc1cc2nc(-c3ccc(C(N)=O)cc3)nc(N3CCOCC3)c2s1)c1ncc(C(=O)NO)cn1 [Compound 143, 2-(((2-(4-carbamoylphenyl)-4-morpholinothieno[3,2-d]pyrimidin-6-yl)methyl)(methyl)amino)-N-hydroxypyrimidine-5-carboxamide]",100 to 1000,200 to 202 °C,< 100
"CNC(=O)c1cccc(-c2nc(N3CCOCC3)c3sc(CN(C)c4ncc(C(=O)NO)cn4)cc3n2)c1 [Compound 144, N-hydroxy-2-(methyl((2-(3-(methylcarbamoyl)phenyl)-4-morpholinothieno[3,2-d]pyrimidin-6-yl)methyl)amino)pyrimidine-5-carboxamide]",1000 to 10000,215 to 217 °C,< 100
"CC(C)c1ccc(-c2nc(N3CCOCC3)c3sc(CN(C)c4ncc(C(=O)NO)cn4)cc3n2)cc1 [Compound 148, N-hydroxy-2-(((2-(4-isopropylphenyl)-4-morpholinothieno[3,2-d]pyrimidin-6-yl)methyl)(methyl)amino)pyrimidine-5-carboxamide]",> 10000,155 °C (dec.),< 100
"CN(Cc1cc2nc(-c3ccc(S(C)(=O)=O)cc3)nc(N3CCOCC3)c2s1)c1ncc(C(=O)NO)cn1 [Compound 149, N-hydroxy-2-(methyl((2-(4-(methylsulfonyl)phenyl)-4-morpholinothieno[3,2-d]pyrimidin-6-yl)methyl)amino)pyrimidine-5-carboxamide]",> 10000,206 to 208 °C,< 100
"CN(C)c1ccc(-c2nc(N3CCOCC3)c3sc(CN(C)c4ncc(C(=O)NO)cn4)cc3n2)cc1 [Compound 152, 2-(((2-(4-(dimethylamino)phenyl)-4-morpholinothieno[3,2-d]pyrimidin-6-yl)methyl)(methyl)amino)-N-hydroxypyrimidine-5-carboxamide]",> 10000,208 to 210 °C,< 100
"CCNc1ccc(-c2nc(N3CCOCC3)c3sc(CN(C)c4ncc(C(=O)NO)cn4)cc3n2)cc1 [Compound 153, 2-(((2-(4-(ethylamino)phenyl)-4-morpholinothieno[3,2-d]pyrimidin-6-yl)methyl)(methyl)amino)-N-hydroxypyrimidine-5-carboxamide]",> 10000,185 to 187 °C,< 100
"CCN(CC)c1ccc(-c2nc(N3CCOCC3)c3sc(CN(C)c4ncc(C(=O)NO)cn4)cc3n2)cc1 [Compound 154, 2-(((2-(4-(Diethylamino)phenyl)-4-morpholinothieno[3,2-d]pyrimidin-6-yl)methyl)(methyl)amino)-N-hydroxypyrimidine-5-carboxamide]",> 10000,192 to 196 °C,< 100
"CN(Cc1cc2nc(-c3ccc(N4CCCC4)cc3)nc(N3CCOCC3)c2s1)c1ncc(C(=O)NO)cn1 [Compound 155, N-hydroxy-2-(methyl((4-morpholino-2-(4-(pyrrolidin-1-yl)phenyl)thieno[3,2-d]pyrimidin-6-yl)methyl)amino)pyrimidine-5-carboxamide]",> 10000,187 to 192 °C,< 100

# Further lines, results first:
IC50 (PI3Kα (p110α/p85α)) [nM],melting point,IC50 [1] [nM],Structure (SMILES)
100 to 1000,190 to 195 °C,< 100,"CN(C)c1ccc(-c2nc(N3CCOCC3)c3sc(CN(C)c4ncc(C(=O)NO)cn4)cc3n2)cn1 [Compound 114, 2-(((2-(6-(dimethylamino)pyridin-3-yl)-4-morpholinothieno[3,2-d]pyrimidin-6-yl)methyl)(methyl)amino)-N-hydroxypyrimidine-5-carboxamide]"
< 100,159 to 160 °C,< 100,"CN(Cc1cc2nc(-c3cncnc3)nc(N3CCOCC3)c2s1)c1ncc(C(=O)NO)cn1 [Compound 119, N-hydroxy-2-(methyl((4-morpholino-2-(pyrimidin-5-yl)thieno[3,2-d]pyrimidin-6-yl)methyl)amino)pyrimidine-5-carboxamide]"
< 100,> 300 °C,< 100,"CN(Cc1cc2nc(-c3cnc(CN)nc3)nc(N3CCOCC3)c2s1)c1ncc(C(=O)NO)cn1 [Compound 124, 2-(((2-(2-(aminomethyl)pyrimidin-5-yl)-4-morpholinothieno[3,2-d]pyrimidin-6-yl)methyl)(methyl)amino)-N-hydroxypyrimidine-5-carboxamide]"
> 10000,199 to 200 °C,< 100,"CN(Cc1cc2nc(-c3ccccc3)nc(N3CCOCC3)c2s1)c1ncc(C(=O)NO)cn1 [Compound 129, N-hydroxy-2-(methyl((4-morpholino-2-phenylthieno[3,2-d]pyrimidin-6-yl)methyl)amino)pyrimidine-5-carboxamide]"
> 10000,247 °C (dec.),< 100,"COc1ccc(-c2nc(N3CCOCC3)c3sc(CN(C)c4ncc(C(=O)NO)cn4)cc3n2)cc1 [Compound 131, N-hydroxy-2-(((2-(4-methoxyphenyl)-4-morpholinothieno[3,2-d]pyrimidin-6-yl)methyl)(methyl)amino)pyrimidine-5-carboxamide]"
100 to 1000,185 to 195 °C,< 100,"CN(Cc1cc2nc(-c3ccc(O)cc3)nc(N3CCOCC3)c2s1)c1ncc(C(=O)NO)cn1 [Compound 133, N-hydroxy-2-(((2-(4-hydroxyphenyl)-4-morpholinothieno[3,2-d]pyrimidin-6-yl)methyl)(methyl)amino)pyrimidine-5-carboxamide]"
100 to 1000,179 to 182 °C,< 100,"CN(Cc1cc2nc(-c3cccc(N)c3)nc(N3CCOCC3)c2s1)c1ncc(C(=O)NO)cn1 [Compound 134, 2-(((2-(3-aminophenyl)-4-morpholinothieno[3,2-d]pyrimidin-6-yl)methyl)(methyl)amino)-N-hydroxypyrimidine-5-carboxamide]"
100 to 1000,184 to 186 °C,< 100,"CN(Cc1cc2nc(-c3ccc(CN)cc3)nc(N3CCOCC3)c2s1)c1ncc(C(=O)NO)cn1 [Compound 135, 2-(((2-(4-(aminomethyl)phenyl)-4-morpholinothieno[3,2-d]pyrimidin-6-yl)methyl)(methyl)amino)-N-hydroxypyrimidine-5-carboxamide]"
1000 to 10000,173 to 176 °C,< 100,"CN(Cc1cc2nc(-c3cccc(CN)c3)nc(N3CCOCC3)c2s1)c1ncc(C(=O)NO)cn1 [Compound 137, 2-(((2-(3-(aminomethyl)phenyl)-4-morpholinothieno[3,2-d]pyrimidin-6-yl)methyl)(methyl)amino)-N-hydroxypyrimidine-5-carboxamide]"
100 to 1000,218 to 223 °C,< 100,"CN(Cc1cc2nc(-c3ccc(CO)cc3)nc(N3CCOCC3)c2s1)c1ncc(C(=O)NO)cn1 [Compound 140, N-hydroxy-2-(((2-(4-(hydroxymethyl)phenyl)-4-morpholinothieno[3,2-d]pyrimidin-6-yl)methyl)(methyl)amino)pyrimidine-5-carboxamide]"
> 10000,214 to 216 °C,< 100,"CN(Cc1cc2nc(-c3ccc(C#N)cc3)nc(N3CCOCC3)c2s1)c1ncc(C(=O)NO)cn1 [Compound 146, 2-(((2-(4-cyanophenyl)-4-morpholinothieno[3,2-d]pyrimidin-6-yl)methyl)(methyl)amino)-N-hydroxypyrimidine-5-carboxamide]"
> 10000,153 °C,< 100,"CN(Cc1cc2nc(-c3ccc(Cl)cc3)nc(N3CCOCC3)c2s1)c1ncc(C(=O)NO)cn1 [Compound 147, 2-(((2-(4-chlorophenyl)-4-morpholinothieno[3,2-d]pyrimidin-6-yl)methyl)(methyl)amino)-N-hydroxypyrimidine-5-carboxamide]"
> 10000,218 to 220 °C,< 100,"CNc1ccc(-c2nc(N3CCOCC3)c3sc(CN(C)c4ncc(C(=O)NO)cn4)cc3n2)cc1 [Compound 151, N-hydroxy-2-(methyl((2-(4-(methylamino)phenyl)-4-morpholinothieno[3,2-d]pyrimidin-6-yl)methyl)amino)pyrimidine-5-carboxamide]"
